# Test results: publication PMC12073189, “Synthesis and Evaluation of a Novel Zuranolone Analog with High GABAA Receptor PAM Activity and Excellent Pharmacokinetic Profiles” (Molecules, 2025)
# Experiments:
# α1β2γ2 GABAA receptor = biological target: T1, α1β2γ2 GABAA receptor (Homo sapiens, UniProt P14867+P47870); assay: Whole-cell electrophysiology of GABA-evoked currents, LTK cells; assay type: cell-based; conditions: for EC50 / Emax: LTK cells, n = 3; for EC50: 1 μmol/L GABA (EC20), read-out: α1β2γ2 EC50; for Emax: current induced by 1 μmol/L GABA = 100%; for activity as % of that of Zuranolone: GABAA receptor subtypes
# T1 construct: expressed in transfected cells
# T1 sequence (P14867 28-456): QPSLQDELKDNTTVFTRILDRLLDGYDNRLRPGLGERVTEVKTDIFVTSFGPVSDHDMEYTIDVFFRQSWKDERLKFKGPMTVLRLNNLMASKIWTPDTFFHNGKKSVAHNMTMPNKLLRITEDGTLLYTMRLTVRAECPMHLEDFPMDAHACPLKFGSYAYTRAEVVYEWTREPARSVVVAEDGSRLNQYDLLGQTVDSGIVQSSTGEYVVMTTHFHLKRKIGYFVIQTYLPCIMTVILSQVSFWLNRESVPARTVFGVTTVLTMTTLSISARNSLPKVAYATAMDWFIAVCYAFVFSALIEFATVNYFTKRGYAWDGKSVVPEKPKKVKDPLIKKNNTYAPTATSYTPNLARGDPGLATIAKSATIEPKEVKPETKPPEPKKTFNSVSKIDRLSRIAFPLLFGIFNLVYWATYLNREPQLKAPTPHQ
# T1 sequence (P47870 25-512 limits assumed): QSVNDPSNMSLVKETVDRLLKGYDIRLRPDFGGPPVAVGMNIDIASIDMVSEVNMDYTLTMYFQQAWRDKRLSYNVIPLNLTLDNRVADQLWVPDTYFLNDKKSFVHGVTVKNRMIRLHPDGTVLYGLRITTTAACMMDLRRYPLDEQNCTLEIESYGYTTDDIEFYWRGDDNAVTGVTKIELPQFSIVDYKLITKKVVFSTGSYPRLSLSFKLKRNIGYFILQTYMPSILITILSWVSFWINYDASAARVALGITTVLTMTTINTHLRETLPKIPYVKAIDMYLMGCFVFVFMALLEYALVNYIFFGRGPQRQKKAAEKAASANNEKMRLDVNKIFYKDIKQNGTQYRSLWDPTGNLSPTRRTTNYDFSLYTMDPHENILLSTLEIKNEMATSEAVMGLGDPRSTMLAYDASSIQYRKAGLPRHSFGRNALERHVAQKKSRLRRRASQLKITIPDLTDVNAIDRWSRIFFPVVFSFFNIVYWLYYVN
# T1 sequence (P18507 40-475 partner): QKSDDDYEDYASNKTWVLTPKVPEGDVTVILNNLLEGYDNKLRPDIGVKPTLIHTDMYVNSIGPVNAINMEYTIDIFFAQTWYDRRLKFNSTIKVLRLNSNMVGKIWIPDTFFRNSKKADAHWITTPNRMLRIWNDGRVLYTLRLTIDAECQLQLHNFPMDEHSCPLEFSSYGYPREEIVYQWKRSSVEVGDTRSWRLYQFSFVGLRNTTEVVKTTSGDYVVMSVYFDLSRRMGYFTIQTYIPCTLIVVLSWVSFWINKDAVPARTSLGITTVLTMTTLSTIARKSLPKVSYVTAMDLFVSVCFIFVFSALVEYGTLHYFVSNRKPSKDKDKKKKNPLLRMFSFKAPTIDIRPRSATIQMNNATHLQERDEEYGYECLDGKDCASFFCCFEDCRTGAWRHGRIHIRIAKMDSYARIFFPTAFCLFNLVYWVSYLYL
# Procedure: (§1) The α1β2γ2 and α4β3δ GABAA receptor subtypes, representing synaptic and extrasynaptic subunit compositions in neurons, are widely utilized for screening new NAS drugs. In this study, a preliminary SAR study was conducted on a series of Zuranolone analogs using the LogP values predicted by ADMETlab3.0 software, recombinant human GABAA receptor cell lines, and in vitro liver microsome stability assays. The results are summarized in Table 1, Table 2, and Table 3, respectively.
# (§2) The effects of Zuranolone and synthetic analogs on GABA-evoked currents were assessed in LTK cells stably expressing α1β2γ2 GABAA receptor subunits (n = 3) or CHO cells transiently expressing α4β3δ receptors (n = 3). Whole-cell mode recordings were conducted using the HEKA EPC-10 amplifier and analyzed with PatchMaster software (version 2x90, HEKA Elektronik, Lambrecht, Germany). High-throughput whole-cell recordings were performed using the Q-Patch method from Sophion. Test substances were dissolved in DMSO (dimethyl sulfoxide) to prepare 10 mmol/L stock solutions, then diluted with perfusion bath solution to concentrations ranging from 0.01 to 10 μmol/L. In this experiment, the effects of Zuranolone and its synthetic analogs on GABA-induced currents were examined in the presence of a submaximal agonist concentration at 1 μmol/L GABA (EC20). Cells were pre-incubated with increasing doses of test substances for 30 s, followed by 2 s of GABA stimulation, and currents were recorded. The maximum efficacy (Emax) of the GABAA receptor is expressed with the current induced by 1 μmol/L GABA taken as 100%, and the percentage after treatment with the test compound is calculated. The EC50 values are determined by fitting the three concentration–response curves recorded from three cells.
# [1] = Liver microsome metabolic stability (HLM); assay type: in vitro ADME, human; conditions: pH 7.4; human liver microsomes; read-out: HLM T1/2
# Procedure: (§3) We quantified S1–S15 and Zuranolone using a UPLC-MS/MS (Agilent 1290 Infinity II UHPLC (Agilent Technologies, Santa Clara, CA, USA) coupled with a QTRAP 5500 MS/MS (ESI source) (SCIEX, Redwood City, CA, USA for MS/MS). The method assessed the content level of S9 and Zuranolone in microsome metabolism and in rat brain tissue and plasma. An ACQUITY UPLC Peptide BEH C18 column (Waters; 50 × 2.1 mm, 1.7 μm; 60 °C; Waters Corporation, Milford, MA, USA) was used with a mobile phase of 0.02% propionic acid in water (A) and acetonitrile (B). The gradient elution of the mobile phase B is carried out as follows: it is 10% from 0 to 0.5 min, 90% from 0.8 to 2.5 min, and 10% from 2.8 to 3.5 min, with a flow rate of 0.40 mL/min. Quantitative analysis was performed on a QTRAP 5500 MS (SCIEX, Redwood City, CA, USA) in positive ionization mode with MRM (multiple reaction monitoring), using progesterone-d9 as the internal standard. MRM transitions and parameters were optimized for each analyte, with collision energies of 25 V (S1–S15), 23 V (Zuranolone), and 30 V (IS), and declustering potentials of 80 V (S1–S15), 90 V (Zuranolone), and 180 V (IS). Other conditions were as follows: curtain gas 10 psi, collision gas ‘medium’, ion spray voltage 5500 V, temperature 500 °C, and ionization source gases 1 and 2 at 50 psi.
# (§4) To evaluate the metabolic stability of compounds S1–S15 and Zuranolone in RLM and HLM, we designed the following in vitro liver microsome metabolism assay protocol. In a 1.5 mL centrifuge tube, sequentially add 173 μL of PBS (0.1 M, pH 7.4), 5 μL of liver microsomes (20 mg/mL), and 2 μL of the test compound (100 μmol/L). After thorough mixing, pre-incubate at 37 °C for 10 min. Subsequently, add 20 μL of NADPH to initiate the metabolism, with a parallel control without NADPH, to validate the background signal. Samples were collected at 0, 5, 10, 20, 30, and 60 min post-reaction initiation. At each designated time point, we quenched the reaction with ice-cold acetonitrile (600 μL). After centrifuging the mixture, we analyzed the supernatant using UPLC-MS/MS. For data analysis, the compound concentration at 0 min was set as 100%, with concentrations at subsequent time points expressed as residual percentages relative to the initial value, and the in vitro half-life (T1/2) and intrinsic clearance (CLint) were calculated.
# α4β3δ GABAA receptor = biological target: T2, α4β3δ GABAA receptor (Homo sapiens, UniProt P28472+P48169); assay: Whole-cell electrophysiology of GABA-evoked currents, CHO cells; assay type: cell-based; conditions: for EC50 / Emax: CHO cells, n = 3; for EC50: 1 μmol/L GABA (EC20), read-out: α4β3δ EC50; for Emax: current induced by 1 μmol/L GABA = 100%
# T2 construct: expressed in transfected cells; host or cells: CHO cells (transient expression)
# T2 sequence (P48169 36-554): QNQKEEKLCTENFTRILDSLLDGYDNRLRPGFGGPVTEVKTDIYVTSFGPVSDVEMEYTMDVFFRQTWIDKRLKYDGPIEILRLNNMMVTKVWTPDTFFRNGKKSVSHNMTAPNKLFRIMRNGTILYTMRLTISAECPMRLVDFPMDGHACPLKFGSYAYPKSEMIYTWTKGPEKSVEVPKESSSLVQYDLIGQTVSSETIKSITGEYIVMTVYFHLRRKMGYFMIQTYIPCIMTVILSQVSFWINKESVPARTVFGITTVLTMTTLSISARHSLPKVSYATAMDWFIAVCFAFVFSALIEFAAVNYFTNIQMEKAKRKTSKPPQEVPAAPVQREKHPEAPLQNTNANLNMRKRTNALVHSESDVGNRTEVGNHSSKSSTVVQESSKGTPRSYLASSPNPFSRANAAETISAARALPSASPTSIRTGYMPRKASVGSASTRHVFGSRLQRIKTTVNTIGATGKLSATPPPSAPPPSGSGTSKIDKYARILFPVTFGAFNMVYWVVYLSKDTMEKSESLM
# T2 sequence (P28472 26-473): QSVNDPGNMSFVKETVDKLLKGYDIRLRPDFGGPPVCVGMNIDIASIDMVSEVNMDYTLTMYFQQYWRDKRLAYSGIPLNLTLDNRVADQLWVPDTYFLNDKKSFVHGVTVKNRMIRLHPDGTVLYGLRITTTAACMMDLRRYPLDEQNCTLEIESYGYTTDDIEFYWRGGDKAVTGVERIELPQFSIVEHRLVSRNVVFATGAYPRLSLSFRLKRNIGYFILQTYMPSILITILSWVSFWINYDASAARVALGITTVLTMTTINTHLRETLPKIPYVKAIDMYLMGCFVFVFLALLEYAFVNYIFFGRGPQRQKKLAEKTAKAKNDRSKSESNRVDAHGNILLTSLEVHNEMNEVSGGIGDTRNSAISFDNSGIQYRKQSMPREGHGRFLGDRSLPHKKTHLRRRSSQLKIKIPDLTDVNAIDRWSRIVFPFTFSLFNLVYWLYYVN
# T2 sequence (O14764 25-452 partner): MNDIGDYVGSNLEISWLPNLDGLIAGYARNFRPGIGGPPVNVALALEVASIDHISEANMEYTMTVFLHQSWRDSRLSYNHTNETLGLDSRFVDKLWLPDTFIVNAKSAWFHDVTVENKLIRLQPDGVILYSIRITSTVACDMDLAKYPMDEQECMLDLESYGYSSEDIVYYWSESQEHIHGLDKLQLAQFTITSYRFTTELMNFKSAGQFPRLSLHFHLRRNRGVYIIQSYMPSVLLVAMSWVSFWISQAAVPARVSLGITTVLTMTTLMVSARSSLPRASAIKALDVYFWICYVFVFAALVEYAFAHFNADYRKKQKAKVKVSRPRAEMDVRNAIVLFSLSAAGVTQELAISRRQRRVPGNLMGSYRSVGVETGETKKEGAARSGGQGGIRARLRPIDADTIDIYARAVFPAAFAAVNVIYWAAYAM
# Procedure: as §1, §2
# [2] = Liver microsome metabolic stability (RLM); assay type: in vitro ADME, rat; conditions: pH 7.4; rat liver microsomes; read-out: RLM T1/2
# Procedure: as §3, §4
Structure (SMILES),EC50 (α1β2γ2 GABAA receptor),Emax (α1β2γ2 GABAA receptor),half-life at 1 µM [1],EC50 (α4β3δ GABAA receptor),Emax (α4β3δ GABAA receptor),half-life at 1 µM [2],activity as % of that of Zuranolone (α1β2γ2 GABAA receptor; not separated),half-life at 1 μmol/L [1],half-life at 1 μmol/L [2],"potency higher than Zuranolone (α1β2γ2 GABAA receptor; synaptic and extrasynaptic GABAA receptor subtypes, not separated)",potency as % of that of Zuranolone (α1β2γ2 GABAA receptor; synaptic GABAA receptors),potency as % of that of Zuranolone (α4β3δ GABAA receptor; extrasynaptic GABAA receptors)
COCCn1ncn(CC(=O)[C@H]2CC[C@H]3[C@@H]4CC[C@@H]5C[C@](C)(O)CC[C@@H]5[C@H]4CC[C@]23C)c1=O [S1],227 ± 52 nM,735 ± 75%,34 min,86 ± 25 nM,609 ± 83%,11 min,,,,,,
C[C@@]1(O)CC[C@H]2[C@H](CC[C@@H]3[C@@H]2CC[C@]2(C)[C@@H](C(=O)Cn4ncn(CC5CC5)c4=O)CC[C@@H]32)C1 [S2],58 ± 10 nM,320 ± 25%,,140 ± 10 nM,450 ± 35%,,,,,,,
COc1ccc(-n2ncn(CC(=O)[C@H]3CC[C@H]4[C@@H]5CC[C@@H]6C[C@](C)(O)CC[C@@H]6[C@H]5CC[C@]34C)c2=O)cn1 [S3],167 ± 37 nM,389 ± 50%,,134 ± 32 nM,474 ± 53%,,less than 50%,73 min,16 min,,,
Cc1cc(-n2ncn(CC(=O)[C@H]3CC[C@H]4[C@@H]5CC[C@@H]6C[C@](C)(O)CC[C@@H]6[C@H]5CC[C@]34C)c2=O)cc(C)n1 [S4],171 ± 40 nM,691 ± 72%,,41 ± 19 nM,563 ± 85%,,less than 50%,,,,,
C[C@@]1(O)CC[C@H]2[C@H](CC[C@@H]3[C@@H]2CC[C@]2(C)[C@@H](C(=O)Cn4cnn(-c5cccnc5)c4=O)CC[C@@H]32)C1 [S5],373 ± 45 nM,773 ± 87%,,61 ± 15 nM,391 ± 64%,,,24 min,11 min,,,
C[C@@]1(O)CC[C@H]2[C@H](CC[C@@H]3[C@@H]2CC[C@]2(C)[C@@H](C(=O)Cn4cnn(-c5cc(Cl)ccn5)c4=O)CC[C@@H]32)C1 [S7],109 ± 27 nM,624 ± 29%,,72 ± 21 nM,589 ± 63%,,,69 min,21 min,approximately 10%,,
C[C@@]1(O)CC[C@H]2[C@H](CC[C@@H]3[C@@H]2CC[C@]2(C)[C@@H](C(=O)Cn4cnn(-c5ccnc(C(F)F)c5)c4=O)CC[C@@H]32)C1 [S8],83 ± 24 nM,600 ± 69%,,49 ± 15 nM,432 ± 55%,,,23 min,29 min,,140%,150%
C[C@@]1(O)CC[C@H]2[C@H](CC[C@@H]3[C@@H]2CC[C@]2(C)[C@@H](C(=O)Cn4ncn(-c5ccc(F)cc5)c4=O)CC[C@@H]32)C1 [S10],12.4 ± 5 nM,294 ± 52%,,148 ± 25 nM,428 ± 45%,,less than 50%,33 min,10 min,,,
C[C@@]1(O)CC[C@H]2[C@H](CC[C@@H]3[C@@H]2CC[C@]2(C)[C@@H](C(=O)Cn4cnn(-c5cccc(C(N)=O)c5)c4=O)CC[C@@H]32)C1 [S12],153 ± 33 nM,764 ± 65%,,159 ± 20 nM,386 ± 50%,,less than 50%,29 min,18 min,,,
C[C@@]1(O)CC[C@H]2[C@H](CC[C@@H]3[C@@H]2CC[C@]2(C)[C@@H](C(=O)Cn4cnn(-c5cc(F)cc(C#N)c5)c4=O)CC[C@@H]32)C1 [S13],72 ± 16 nM,518 ± 87%,,37 ± 12 nM,549 ± 101%,,,40 min,90 min,,,
C[C@@]1(O)CC[C@H]2[C@H](CC[C@@H]3[C@@H]2CC[C@]2(C)[C@@H](C(=O)Cn4cnn(CCOC(F)(F)F)c4=O)CC[C@@H]32)C1 [S14],770 ± 104 nM,576 ± 78%,,460 ± 59 nM,889 ± 126%,,,31 min,23 min,,,
C[C@@]1(O)CC[C@H]2[C@H](CC[C@@H]3[C@@H]2CC[C@]2(C)[C@@H](C(=O)Cn4c(=O)n(-c5ccccc5)c5ccccc54)CC[C@@H]32)C1 [S15],31 ± 12 nM,305 ± 62%,,55 ± 15 nM,470 ± 94%,,,248 min,210 min,,,
